Data: ChEMBL document CHEMBL1201862, “PubChem BioAssay data set” (2004)
Calls of active or inactive are those of the source.

What was measured:
Hexokinase HKDC1 = Hexokinase HKDC1 (Homo sapiens, UniProt Q2TB90); test: activation of HKDC1 glucose phosphorylation – biochemical, W721R variant, dose response (AID 504730); assay type: functional
Hexokinase-1 = Hexokinase-1 (Homo sapiens, UniProt P19367); test: HK1 enzyme activation by HKDC1 hits – biochemical, selectivity assay for HKDC1 activator project, dose response (AID 504762); assay type: functional
Mucolipin-3 = Mucolipin-3 (Homo sapiens, UniProt Q8TDD5); test: Fluorescence counterscreen assay for […] agonists: dose response cell-based high-throughput screening assay to identify agonists of the transient receptor potential channel ML3 (TRPML3). [Related pubchem assays: 1424, 1448 ]; assay type: functional
Ion channel NompC = Ion channel NompC (Danio rerio, UniProt Q7T1G6); test: Dose response cell-based high-throughput screening assay for agonists of the transient receptor potential channel N1 (TRPN1). [Related pubchem assays (depositor defined):AID1424, AID1448]; assay type: functional
[1] = biological target: T1, High affinity choline transporter 1 (Homo sapiens, UniProt Q9GZV3); test: human choline transporter blockers, potency – cell-based, 5-point CRC, membrane potential dye, dose response (AID 504840); assay type: functional
T1 sequence (Q9GZV3 whole entry): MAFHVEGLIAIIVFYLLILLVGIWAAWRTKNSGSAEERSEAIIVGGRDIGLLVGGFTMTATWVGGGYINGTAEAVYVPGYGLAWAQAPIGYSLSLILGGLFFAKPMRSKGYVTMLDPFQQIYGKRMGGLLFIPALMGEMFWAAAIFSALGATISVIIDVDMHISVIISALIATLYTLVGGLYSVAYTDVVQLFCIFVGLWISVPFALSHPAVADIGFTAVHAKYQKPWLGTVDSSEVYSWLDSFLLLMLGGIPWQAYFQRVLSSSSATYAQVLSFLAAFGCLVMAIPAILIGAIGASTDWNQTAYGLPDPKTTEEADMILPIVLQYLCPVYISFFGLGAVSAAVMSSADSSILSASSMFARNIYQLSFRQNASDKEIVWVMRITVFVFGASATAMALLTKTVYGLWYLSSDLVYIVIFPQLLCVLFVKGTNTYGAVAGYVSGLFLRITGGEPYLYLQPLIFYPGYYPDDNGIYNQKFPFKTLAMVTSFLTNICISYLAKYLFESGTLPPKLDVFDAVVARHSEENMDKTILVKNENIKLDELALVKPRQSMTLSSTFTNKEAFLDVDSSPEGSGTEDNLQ

[2] = biological target: Sphingosine 1-phosphate receptor 4 (Homo sapiens, UniProt O95977); test: Fluorescence dose response cell-based high throughput screening assay for agonists of the Sphingosine 1-Phosphate Receptor 4 (S1P4). [Related pubchem assays: 1509 (Primary screen.), 1523 (Confirmation screen in triplicates.)]; assay type: functional
[3] = biological target: Sphingosine 1-phosphate receptor 1 (Homo sapiens, UniProt P21453); test: Fluorescence-based counterscreen assay for S1P4 agonists: Cell-based dose response high throughput screening assay to identify agonists of the Sphingosine 1-Phosphate Receptor 1 (S1P1). [Related pubchem assays (depositor defined):AID1509, AID1523, AID1801, AID463107, AID463118, AID463119, AID463122, AID463123, AID463129, AID463225, AID504400, AID504460]; assay type: functional
[4] = biological target: T2, Dual specificity protein phosphatase 3 (Homo sapiens, UniProt P51452); test: VHR1 phosphatase inhibitors, biochemical (AID 1878)
[5] = biological target: T3, Dual specificity protein phosphatase 6 (Rattus norvegicus, UniProt Q64346); test: inhibition of rat DUSP6 enzyme activity – biochemical, in vitro, primary screen (AID 425)
T3 sequence (Q64346 whole entry): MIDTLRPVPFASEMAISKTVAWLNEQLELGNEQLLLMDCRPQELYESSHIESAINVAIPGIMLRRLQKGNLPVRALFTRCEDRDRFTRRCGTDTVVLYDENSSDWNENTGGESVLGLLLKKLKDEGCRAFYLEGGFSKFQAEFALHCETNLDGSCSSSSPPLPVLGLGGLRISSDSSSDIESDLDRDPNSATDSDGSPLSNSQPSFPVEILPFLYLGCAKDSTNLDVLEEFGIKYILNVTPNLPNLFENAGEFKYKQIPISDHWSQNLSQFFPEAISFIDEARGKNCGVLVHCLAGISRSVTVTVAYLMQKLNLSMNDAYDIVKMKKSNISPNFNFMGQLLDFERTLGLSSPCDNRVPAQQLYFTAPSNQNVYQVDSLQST

[6] = biological target: T4, Tyrosine-protein phosphatase non-receptor type 7 (Homo sapiens, UniProt P35236); assay type: functional
T4 sequence (P35236 whole entry): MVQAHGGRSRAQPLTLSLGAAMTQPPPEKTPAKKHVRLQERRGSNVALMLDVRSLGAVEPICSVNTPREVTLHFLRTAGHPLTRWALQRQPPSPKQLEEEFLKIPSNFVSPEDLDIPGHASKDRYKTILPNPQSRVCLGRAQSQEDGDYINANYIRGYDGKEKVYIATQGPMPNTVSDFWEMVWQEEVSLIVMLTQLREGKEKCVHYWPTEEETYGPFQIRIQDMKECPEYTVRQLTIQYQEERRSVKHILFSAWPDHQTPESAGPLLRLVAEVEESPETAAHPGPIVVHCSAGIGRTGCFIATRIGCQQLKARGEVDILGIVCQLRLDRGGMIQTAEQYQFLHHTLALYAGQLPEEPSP

[7] = biological target: T2, Dual specificity protein phosphatase 3; test: VHR1 phosphatase inhibitors, primary screen, biochemical, absorbance, uHTS (AID 1654)
[8] = biological target: T5, Tyrosine-protein phosphatase non-receptor type 22 (Homo sapiens, UniProt Q9Y2R2); assay type: functional
BJ [9] = test: BJ-TERT fibroblast viability loss – cell-based, RAS-independent, luminescence, dose response (AID 1933); assay type: functional; settings: Homo sapiens
BJ [10] = test: BJ-TERT-LT-ST fibroblast viability loss – cell-based, RAS-independent, luminescence, dose response (AID 1935); assay type: functional; settings: Homo sapiens;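 note: BJ fibroblasts immortalized with TERT plus LT and ST oncogenes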
[11] = biological target: T5, Tyrosine-protein phosphatase non-receptor type 22; assay type: functional; remark: listed apart in the source
BJ [12] = test: growth inhibition of engineered Ras-driven BJ cells – cell-based, alamar blue fluorescence, cherrypicked samples, dose response (AID 2631); assay type: functional; settings: Homo sapiens;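 note: confirmatory dose-response assay in RAS-dependent BJ fibroblasts engineered with TERT, LT and ST, with cytotoxicity read by fluorescence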
[13] = DRD fibroblast viability loss – cell-based, non-viral oncogenic, luminescence, dose response (AID 1934); assay type: functional; settings: Homo sapiens
[14] = biological target: Heat shock protein HSP 90-alpha (Homo sapiens, UniProt P07900); assay type: functional, organism-based
BJ [15] = test: cells; assay type: functional, cell-based; settings: Homo sapiens
[16] = biological target: T4, Tyrosine-protein phosphatase non-receptor type 7; test: HePTP tyrosine phosphatase activity blockers – biochemical, absorbance, leukemia target, primary screen (AID 521); assay type: functional

T5 sequence (Q9Y2R2 whole entry): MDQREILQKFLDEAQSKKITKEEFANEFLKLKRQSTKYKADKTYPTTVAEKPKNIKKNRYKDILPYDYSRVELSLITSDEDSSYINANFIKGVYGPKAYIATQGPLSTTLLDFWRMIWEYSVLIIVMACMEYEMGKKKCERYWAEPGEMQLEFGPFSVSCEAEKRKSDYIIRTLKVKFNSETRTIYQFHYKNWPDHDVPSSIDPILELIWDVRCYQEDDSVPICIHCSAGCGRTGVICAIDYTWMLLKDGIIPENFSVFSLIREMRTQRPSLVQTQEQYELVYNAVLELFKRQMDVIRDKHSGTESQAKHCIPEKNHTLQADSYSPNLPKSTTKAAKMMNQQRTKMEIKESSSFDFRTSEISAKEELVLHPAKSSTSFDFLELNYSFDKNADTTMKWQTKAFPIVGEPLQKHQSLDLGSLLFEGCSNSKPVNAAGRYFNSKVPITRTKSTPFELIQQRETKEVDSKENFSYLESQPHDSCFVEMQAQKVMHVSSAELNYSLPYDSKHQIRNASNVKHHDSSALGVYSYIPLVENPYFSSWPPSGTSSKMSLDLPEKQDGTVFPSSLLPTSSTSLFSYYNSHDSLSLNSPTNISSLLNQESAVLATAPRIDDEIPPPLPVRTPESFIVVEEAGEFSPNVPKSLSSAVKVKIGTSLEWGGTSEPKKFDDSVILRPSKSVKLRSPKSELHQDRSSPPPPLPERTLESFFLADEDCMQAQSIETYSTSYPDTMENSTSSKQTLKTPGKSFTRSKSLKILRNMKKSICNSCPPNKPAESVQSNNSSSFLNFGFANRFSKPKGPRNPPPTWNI
T2 sequence (P51452 whole entry): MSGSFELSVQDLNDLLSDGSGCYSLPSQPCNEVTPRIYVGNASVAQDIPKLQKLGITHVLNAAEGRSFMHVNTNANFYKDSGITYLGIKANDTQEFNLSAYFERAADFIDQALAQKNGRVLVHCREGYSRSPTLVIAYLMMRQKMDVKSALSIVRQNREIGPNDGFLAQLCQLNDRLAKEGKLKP
Chain of Hexokinase HKDC1 (Q2TB90 whole entry): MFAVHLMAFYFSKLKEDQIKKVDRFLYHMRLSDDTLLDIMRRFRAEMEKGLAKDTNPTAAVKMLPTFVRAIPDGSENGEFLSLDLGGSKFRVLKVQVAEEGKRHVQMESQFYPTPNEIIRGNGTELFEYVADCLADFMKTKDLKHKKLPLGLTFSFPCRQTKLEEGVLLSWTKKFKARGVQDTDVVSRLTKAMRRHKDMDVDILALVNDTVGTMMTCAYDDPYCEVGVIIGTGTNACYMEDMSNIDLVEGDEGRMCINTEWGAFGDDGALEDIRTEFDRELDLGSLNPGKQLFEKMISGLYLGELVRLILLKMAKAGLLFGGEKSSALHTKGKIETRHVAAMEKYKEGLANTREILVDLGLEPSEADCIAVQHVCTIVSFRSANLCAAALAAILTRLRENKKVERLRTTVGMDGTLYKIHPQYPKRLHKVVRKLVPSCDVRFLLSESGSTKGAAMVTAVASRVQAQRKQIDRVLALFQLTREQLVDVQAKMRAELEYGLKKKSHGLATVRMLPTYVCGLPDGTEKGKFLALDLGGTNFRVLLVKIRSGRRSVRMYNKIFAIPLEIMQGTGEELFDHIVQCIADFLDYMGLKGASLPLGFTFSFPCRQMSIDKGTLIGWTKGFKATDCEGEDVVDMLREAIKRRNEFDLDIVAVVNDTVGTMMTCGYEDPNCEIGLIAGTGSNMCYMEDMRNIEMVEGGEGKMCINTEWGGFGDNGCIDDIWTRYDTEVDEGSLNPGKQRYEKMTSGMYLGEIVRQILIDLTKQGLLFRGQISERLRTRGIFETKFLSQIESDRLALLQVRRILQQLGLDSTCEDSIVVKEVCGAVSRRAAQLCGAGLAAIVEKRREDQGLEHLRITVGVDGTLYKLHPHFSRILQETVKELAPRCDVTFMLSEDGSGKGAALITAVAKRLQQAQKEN
Chain of Sphingosine 1-phosphate receptor 4 (O95977 whole entry): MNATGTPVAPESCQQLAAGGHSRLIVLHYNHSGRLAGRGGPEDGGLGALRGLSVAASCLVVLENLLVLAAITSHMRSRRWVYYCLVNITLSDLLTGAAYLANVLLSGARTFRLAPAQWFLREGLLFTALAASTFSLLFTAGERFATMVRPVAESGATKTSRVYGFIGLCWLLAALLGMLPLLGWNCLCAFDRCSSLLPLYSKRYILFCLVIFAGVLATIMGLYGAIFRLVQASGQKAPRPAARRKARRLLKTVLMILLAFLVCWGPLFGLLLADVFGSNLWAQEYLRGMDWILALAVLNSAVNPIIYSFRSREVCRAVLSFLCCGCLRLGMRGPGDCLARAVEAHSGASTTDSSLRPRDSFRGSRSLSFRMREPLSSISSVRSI
Chain of Hexokinase-1 (P19367 whole entry): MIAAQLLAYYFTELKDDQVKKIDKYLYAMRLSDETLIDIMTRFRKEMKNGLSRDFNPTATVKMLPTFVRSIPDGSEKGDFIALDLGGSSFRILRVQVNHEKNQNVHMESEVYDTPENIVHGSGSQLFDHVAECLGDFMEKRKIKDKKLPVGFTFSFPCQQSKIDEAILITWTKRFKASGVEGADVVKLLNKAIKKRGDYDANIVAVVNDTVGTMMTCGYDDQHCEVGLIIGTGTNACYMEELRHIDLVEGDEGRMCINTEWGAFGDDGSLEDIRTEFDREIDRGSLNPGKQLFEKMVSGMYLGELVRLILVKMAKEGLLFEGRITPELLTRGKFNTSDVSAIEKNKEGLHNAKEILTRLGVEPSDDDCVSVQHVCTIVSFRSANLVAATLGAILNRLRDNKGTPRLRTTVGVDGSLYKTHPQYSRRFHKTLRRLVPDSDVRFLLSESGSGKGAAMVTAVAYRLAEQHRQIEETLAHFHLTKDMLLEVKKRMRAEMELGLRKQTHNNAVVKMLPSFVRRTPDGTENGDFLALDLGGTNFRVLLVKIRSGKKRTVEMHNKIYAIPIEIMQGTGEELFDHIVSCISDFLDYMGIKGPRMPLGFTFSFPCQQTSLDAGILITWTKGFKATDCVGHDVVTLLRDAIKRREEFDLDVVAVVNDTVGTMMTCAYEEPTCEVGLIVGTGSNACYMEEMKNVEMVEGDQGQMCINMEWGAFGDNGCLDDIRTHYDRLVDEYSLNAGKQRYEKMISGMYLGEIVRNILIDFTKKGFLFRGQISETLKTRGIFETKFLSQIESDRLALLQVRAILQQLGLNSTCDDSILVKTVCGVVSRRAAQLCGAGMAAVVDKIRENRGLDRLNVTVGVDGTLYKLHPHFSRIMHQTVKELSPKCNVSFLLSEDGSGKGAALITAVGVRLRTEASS
Chain of Sphingosine 1-phosphate receptor 1 (P21453 whole entry): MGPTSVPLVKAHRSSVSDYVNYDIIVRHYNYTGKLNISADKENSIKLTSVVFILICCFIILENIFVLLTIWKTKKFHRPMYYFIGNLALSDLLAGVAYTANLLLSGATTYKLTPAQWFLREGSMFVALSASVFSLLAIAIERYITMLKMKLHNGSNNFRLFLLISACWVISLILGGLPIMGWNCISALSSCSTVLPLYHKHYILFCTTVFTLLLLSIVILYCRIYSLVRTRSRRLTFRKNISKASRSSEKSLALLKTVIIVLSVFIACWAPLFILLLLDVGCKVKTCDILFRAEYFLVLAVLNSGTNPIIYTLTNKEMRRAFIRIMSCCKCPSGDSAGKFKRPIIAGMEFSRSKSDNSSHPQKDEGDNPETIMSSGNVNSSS
Chain of Mucolipin-3 (Q8TDD5 whole entry): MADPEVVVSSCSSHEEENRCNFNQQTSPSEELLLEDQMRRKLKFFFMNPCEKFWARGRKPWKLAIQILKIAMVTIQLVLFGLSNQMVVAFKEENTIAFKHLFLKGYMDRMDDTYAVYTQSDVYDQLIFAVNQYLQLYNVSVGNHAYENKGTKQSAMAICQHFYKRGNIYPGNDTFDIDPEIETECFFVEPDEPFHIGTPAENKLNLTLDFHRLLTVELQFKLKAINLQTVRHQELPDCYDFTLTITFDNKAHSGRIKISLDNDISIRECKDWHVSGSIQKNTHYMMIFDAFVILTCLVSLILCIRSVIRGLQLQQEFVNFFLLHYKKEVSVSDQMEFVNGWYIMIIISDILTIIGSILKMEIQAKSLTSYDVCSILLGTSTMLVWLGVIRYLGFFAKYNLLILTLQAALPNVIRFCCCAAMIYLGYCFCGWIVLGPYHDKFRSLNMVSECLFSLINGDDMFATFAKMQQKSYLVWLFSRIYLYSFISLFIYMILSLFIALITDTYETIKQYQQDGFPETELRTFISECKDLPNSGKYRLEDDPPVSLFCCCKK

CSc1nc(N)nc2c1ncn2CC(=O)N[C@H](C)c1cccc2ccccc12
EC50 (Hexokinase HKDC1): 9.1 µM (active)
EC50 (Hexokinase-1): 11.8 µM (active)

CC(C)(C)S(=O)(=O)/C(C#N)=N/Nc1ccc(Cl)cc1
EC50 (Mucolipin-3): > 29.9 µM (not active)
EC50 (Ion channel NompC): > 29.9 µM (inactive)
IC50 [1]: 1.32 µM (active)

NC(=S)c1cc2ccc(O)cc2oc1=O
EC50 [2]: 7.68 µM (active)
EC50 [3]: 52.9 µM (inactive)

O=C(c1cccs1)c1no[n+]([O-])c1C(=O)c1cccs1
IC50 [4]: 7.48 µM (active)
IC50 [5]: 141 µM (not active)
IC50 [6]: 4.5 µM (active)
IC50 [7]: < 0.98 µM (inactive)
IC50 [8]: 2.39 µM (active)
EC50 (BJ [9]): 0.803 µM (active)
EC50 (BJ [10]): 7.28 µM (inconclusive)
IC50 [11]: < 1.24 µM (active)
EC50 (BJ [12]): 3.9 µM (inconclusive)
EC50 [13]: 2.78 µM (inconclusive)
AC50 [14]: 3.5 µM (active)
EC50 (BJ [15]): 3.58 µM (active)
IC50 [16]: > 100 µM (not active)
